Experimental data as given in ChEMBL document CHEMBL1143950, “Antifungal and cytotoxic activities of some N-substituted aniline derivatives bearing a hetaryl fragment” (Bioorg Med Chem, 2008).
Values after ≈ are worked out from the molar mass of the structure shown.

Experiments:
Format in all cases: functional
Trichophyton rubrum = assay: Antifungal activity against Trichophyton rubrum C113 by microbroth dilution method
Aspergillus niger = assay: Antifungal activity against Aspergillus niger ATCC 9029 by micro-broth dilution method
Cryptococcus neoformans = assay: Antifungal activity against Cryptococcus neoformans ATCC 32264 by microbroth dilution method
Saccharomyces cerevisiae = assay: Antifungal activity against Saccharomyces cerevisiae ATCC 9763 by microbroth dilution method
Aspergillus fumigatus = assay: Antifungal activity against Aspergillus fumigatus ATCC 26934 by micro-broth dilution method
[1] = test system: Trichophyton mentagrophytes; assay: Antifungal activity against Trichophyton mentagrophytes ATCC 9972 by micro-broth dilution method
Nannizzia gypsea = assay: Antifungal activity against Microsporum gypseum C115 by microbroth dilution method
Candida tropicalis = assay: Antifungal activity against Candida tropicalis C131 by micro-broth dilution method
Candida albicans = assay: Antifungal activity against Candida albicans ATCC 10231 by micro-broth dilution method
Aspergillus flavus = assay: Antifungal activity against Aspergillus flavus ATCC 9170 by micro-broth dilution method

Structure (SMILES) | MIC (Trichophyton rubrum) [µg/mL] | MIC (Aspergillus niger) [µg/mL] | MIC (Cryptococcus neoformans) [µg/mL] | MIC (Saccharomyces cerevisiae) [µg/mL] | MIC (Aspergillus fumigatus) [µg/mL] | MIC [1] [µg/mL] | MIC (Nannizzia gypsea) [µg/mL] | MIC (Candida tropicalis) [µg/mL] | MIC (Candida albicans) [µg/mL] | MIC (Aspergillus flavus) [µg/mL]
C=CCC(Nc1ccccc1)c1ccoc1 (stereo not given) | 62.5 (≈ 293 µM) | > 250 | 250 (≈ 1170 µM) | > 250 | > 250 | 62.5 (≈ 293 µM) | 125 (≈ 586 µM) | > 250 | > 250 | > 250
Clc1ccc(NCc2cccs2)cc1 | 62.5 (≈ 279 µM) | 250 (≈ 1120 µM) | 62.5 (≈ 279 µM) | 250 (≈ 1120 µM) | 125 (≈ 559 µM) | 62.5 (≈ 279 µM) | 62.5 (≈ 279 µM) | 62.5 (≈ 279 µM) | 62.5 (≈ 279 µM) | 250 (≈ 1120 µM)
Cn1cccc1CNc1ccccc1 | 250 (≈ 1340 µM) | > 250 | > 250 | > 250 | > 250 | 250 (≈ 1340 µM) | > 250 | > 250 | > 250 | > 250
N#CC(Nc1ccccc1)c1ccsc1 (stereo not given) | 250 (≈ 1170 µM) | > 250 | > 250 | > 250 | > 250 | 250 (≈ 1170 µM) | > 250 | > 250 | > 250 | > 250
C=CCC(Nc1ccc(OC)cc1)c1ccncc1 (stereo not given) | 125 (≈ 491 µM) | > 250 | > 250 | > 250 | > 250 | 125 (≈ 491 µM) | 62.5 (≈ 246 µM) | > 250 | > 250 | > 250
C=CCC(Nc1ccccc1)c1ccncc1 (stereo not given) | 250 (≈ 1110 µM) | 250 (≈ 1110 µM) | 250 (≈ 1110 µM) | 125 (≈ 557 µM) | 250 (≈ 1110 µM) | 62.5 (≈ 279 µM) | 125 (≈ 557 µM) | 250 (≈ 1110 µM) | 250 (≈ 1110 µM) | 250 (≈ 1110 µM)
c1ccc(NCc2ccncc2)cc1 | 125 (≈ 678 µM) | 250 (≈ 1360 µM) | > 250 | > 250 | 250 (≈ 1360 µM) | 125 (≈ 678 µM) | 125 (≈ 678 µM) | 250 (≈ 1360 µM) | > 250 | 250 (≈ 1360 µM)
C=CCC(Nc1cc(C)cc(C)c1)c1ccncc1 (stereo not given) | 250 (≈ 991 µM) | > 250 | > 250 | 250 (≈ 991 µM) | > 250 | 125 (≈ 495 µM) | 125 (≈ 495 µM) | 250 (≈ 991 µM) | 250 (≈ 991 µM) | > 250
Clc1ccc(NCc2ccsc2)cc1 | 62.5 (≈ 279 µM) | 250 (≈ 1120 µM) | 62.5 (≈ 279 µM) | 250 (≈ 1120 µM) | 125 (≈ 559 µM) | 62.5 (≈ 279 µM) | 62.5 (≈ 279 µM) | 62.5 (≈ 279 µM) | 62.5 (≈ 279 µM) | 250 (≈ 1120 µM)
COc1ccc(CNc2cccc([N+](=O)[O-])c2)cc1 | > 250 | > 250 | > 250 | > 250 | > 250 | > 250 | > 250 | > 250 | > 250 | > 250
C=CCC(Nc1ccc(Cl)cc1)c1ccoc1 (stereo not given) | 62.5 (≈ 252 µM) | > 250 | 125 (≈ 505 µM) | > 250 | > 250 | 62.5 (≈ 252 µM) | 62.5 (≈ 252 µM) | > 250 | > 250 | > 250
C=CCC(Nc1ccc(C)cc1)c1ccsc1 (stereo not given) | > 250 | > 250 | > 250 | > 250 | > 250 | > 250 | > 250 | > 250 | > 250 | > 250
CC(=O)N1CCN(c2ccc(OC[C@H]3CO[C@](Cn4ccnc4)(c4ccc(Cl)cc4Cl)O3)cc2)CC1 [KETOCONAZOLE] | 0.025 (≈ 0.047 µM) | 0.25 (≈ 0.47 µM) | 0.25 (≈ 0.47 µM) | 0.5 (≈ 0.941 µM) | 0.125 (≈ 0.235 µM) | 0.025 (≈ 0.047 µM) | 0.05 (≈ 0.0941 µM) | 0.125 (≈ 0.235 µM) | 0.5 (≈ 0.941 µM) | 0.5 (≈ 0.941 µM)
N#CC(Nc1ccccc1)c1ccco1 (stereo not given) | 250 (≈ 1260 µM) | > 250 | > 250 | > 250 | > 250 | 250 (≈ 1260 µM) | > 250 | > 250 | > 250 | > 250
Cc1ccc(NC(C#N)c2ccsc2)cc1 (stereo not given) | 125 (≈ 547 µM) | > 250 | 125 (≈ 547 µM) | > 250 | > 250 | 125 (≈ 547 µM) | 250 (≈ 1090 µM) | > 250 | > 250 | > 250
c1ccc(NCc2ccco2)cc1 | 100 (≈ 577 µM) | 100 (≈ 577 µM) | 250 (≈ 1440 µM) | > 250 | 62.5 (≈ 361 µM) | 100 (≈ 577 µM) | 100 (≈ 577 µM) | 250 (≈ 1440 µM) | 250 (≈ 1440 µM) | 100 (≈ 577 µM)
C=CCC(Nc1ccc(Br)cc1)c1ccncc1 (stereo not given) | 16 (≈ 52.8 µM) | > 250 | > 250 | > 250 | > 250 | 31.2 (≈ 103 µM) | 16 (≈ 52.8 µM) | > 250 | > 250 | > 250

Structure (SMILES) | MIC (Trichophyton rubrum) [µg/mL] | MIC (Aspergillus niger) [µg/mL] | MIC (Cryptococcus neoformans) [µg/mL] | MIC (Saccharomyces cerevisiae) [µg/mL] | MIC (Aspergillus fumigatus) [µg/mL] | MIC [1] [µg/mL] | MIC (Nannizzia gypsea) [µg/mL] | MIC (Candida tropicalis) [µg/mL] | MIC (Candida albicans) [µg/mL] | MIC (Aspergillus flavus) [µg/mL]
Cc1ccc(NCc2ccco2)cc1 | 25 (≈ 134 µM) | 250 (≈ 1340 µM) | 100 (≈ 534 µM) | > 250 | 125 (≈ 668 µM) | 50 (≈ 267 µM) | 100 (≈ 534 µM) | 250 (≈ 1340 µM) | > 250 | 250 (≈ 1340 µM)
O=[N+]([O-])c1cccc(NCc2ccccn2)c1 | 50 (≈ 218 µM) | 200 (≈ 872 µM) | 50 (≈ 218 µM) | 100 (≈ 436 µM) | 200 (≈ 872 µM) | 50 (≈ 218 µM) | 50 (≈ 218 µM) | 100 (≈ 436 µM) | 100 (≈ 436 µM) | 100 (≈ 436 µM)
c1ccc(NCc2ccccn2)cc1 | 25 (≈ 136 µM) | 250 (≈ 1360 µM) | > 250 | > 250 | 250 (≈ 1360 µM) | 25 (≈ 136 µM) | 125 (≈ 678 µM) | 250 (≈ 1360 µM) | 250 (≈ 1360 µM) | > 250
Cc1ccc(NCc2cccn2C)cc1 | > 250 | > 250 | > 250 | > 250 | > 250 | > 250 | > 250 | > 250 | > 250 | > 250
Oc1ccc(CNc2ccccc2)cc1 | 25 (≈ 125 µM) | > 250 | > 250 | 250 (≈ 1250 µM) | > 250 | 25 (≈ 125 µM) | 50 (≈ 251 µM) | 250 (≈ 1250 µM) | > 250 | > 250
c1ccc(NCc2ccsc2)cc1 | 125 (≈ 660 µM) | 250 (≈ 1320 µM) | 250 (≈ 1320 µM) | 250 (≈ 1320 µM) | 250 (≈ 1320 µM) | 125 (≈ 660 µM) | 250 (≈ 1320 µM) | 250 (≈ 1320 µM) | 250 (≈ 1320 µM) | 250 (≈ 1320 µM)
c1ccc(NCc2cccs2)cc1 | 12.5 (≈ 66 µM) | > 250 | > 250 | > 250 | > 250 | 25 (≈ 132 µM) | 25 (≈ 132 µM) | > 250 | > 250 | > 250
C=CCC(Nc1ccccc1)c1cccs1 (stereo not given) | 125 (≈ 545 µM) | > 250 | > 250 | > 250 | > 250 | 125 (≈ 545 µM) | 125 (≈ 545 µM) | > 250 | > 250 | > 250
N#CC(Nc1ccc(Cl)cc1)c1ccsc1 (stereo not given) | 125 (≈ 503 µM) | > 250 | > 250 | > 250 | > 250 | 125 (≈ 503 µM) | 250 (≈ 1010 µM) | > 250 | > 250 | > 250
COc1ccc(CNc2ccccc2)cc1 | 25 (≈ 117 µM) | > 250 | > 250 | > 250 | > 250 | 25 (≈ 117 µM) | 25 (≈ 117 µM) | > 250 | > 250 | > 250
c1ccc(NCc2ccoc2)cc1 | 125 (≈ 722 µM) | 250 (≈ 1440 µM) | 125 (≈ 722 µM) | 250 (≈ 1440 µM) | 250 (≈ 1440 µM) | 125 (≈ 722 µM) | 250 (≈ 1440 µM) | 250 (≈ 1440 µM) | 250 (≈ 1440 µM) | 250 (≈ 1440 µM)
C=CCC(Nc1ccc(C)cc1)c1cccs1 (stereo not given) | 12.5 (≈ 51.4 µM) | > 250 | > 250 | > 250 | > 250 | 6.25 (≈ 25.7 µM) | 50 (≈ 205 µM) | > 250 | > 250 | > 250
N#CC(Nc1ccccc1)c1ccncc1 (stereo not given) | 125 (≈ 597 µM) | 250 (≈ 1190 µM) | 250 (≈ 1190 µM) | > 250 | 250 (≈ 1190 µM) | 125 (≈ 597 µM) | 250 (≈ 1190 µM) | > 250 | > 250 | 250 (≈ 1190 µM)
Cc1cc(C)cc(NCc2ccncc2)c1 | 25 (≈ 118 µM) | 100 (≈ 471 µM) | 50 (≈ 236 µM) | 250 (≈ 1180 µM) | 100 (≈ 471 µM) | 25 (≈ 118 µM) | 25 (≈ 118 µM) | 250 (≈ 1180 µM) | 250 (≈ 1180 µM) | 200 (≈ 942 µM)
Cc1ccc(NCc2cccc(N)c2)cc1 | 100 (≈ 471 µM) | 12.5 (≈ 58.9 µM) | 100 (≈ 471 µM) | 100 (≈ 471 µM) | 25 (≈ 118 µM) | 100 (≈ 471 µM) | 100 (≈ 471 µM) | 50 (≈ 236 µM) | 50 (≈ 236 µM) | 25 (≈ 118 µM)
Cn1cccc1CNc1ccc(Cl)cc1 | 250 (≈ 1130 µM) | > 250 | 125 (≈ 566 µM) | > 250 | > 250 | 250 (≈ 1130 µM) | > 250 | > 250 | > 250 | > 250
Cc1cc(C)cc(NCc2cccnc2)c1 | 25 (≈ 118 µM) | 200 (≈ 942 µM) | 100 (≈ 471 µM) | 200 (≈ 942 µM) | 100 (≈ 471 µM) | 25 (≈ 118 µM) | 25 (≈ 118 µM) | > 250 | > 250 | 200 (≈ 942 µM)
